Results on 43 molecules are retold here after patent publication US7868006B2, “Heterocyclic substituted piperazines with CXCR3 antagonist activity” (Schering Corporation, priority 2005, dated 2011).

Usually IC50 stands for the concentration needed to halve the response being measured.

SMILES strings stand for the structures. A value given as a limit tells only on which side of the number the result lay.

The test addresses T1, human CXCR3 (N-delta 4) (Homo sapiens, UniProt P49682).
T1 construct: CD8 leader (N); Flag tag (N); expressed in transfected cells; host or cells: mouse pro-B Ba/F3 cells, stably transfected with pME18Sneo-hCXCR3 (N-delta 4); membrane preparation
T1 sequence (P49682 5-368 limits assumed): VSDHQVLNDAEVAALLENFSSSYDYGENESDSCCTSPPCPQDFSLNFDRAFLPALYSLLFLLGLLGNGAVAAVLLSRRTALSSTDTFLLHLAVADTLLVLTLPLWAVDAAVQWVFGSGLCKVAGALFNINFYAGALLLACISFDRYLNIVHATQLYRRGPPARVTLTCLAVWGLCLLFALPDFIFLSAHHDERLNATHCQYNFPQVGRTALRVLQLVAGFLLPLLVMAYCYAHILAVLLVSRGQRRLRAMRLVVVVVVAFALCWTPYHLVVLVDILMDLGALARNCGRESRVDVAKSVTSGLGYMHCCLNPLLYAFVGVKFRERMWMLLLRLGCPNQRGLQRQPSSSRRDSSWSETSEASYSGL
Put plainly: Human CXCR3 (N-delta 4) Scintillation Proximity Assay (SPA), [125I] IP-10 binding. The following applies: IC50 rating; Ba/F3-hCXCR3 (N-delta 4) membranes, 25 pM [125I] IP-10; read-out: IC50. In outline: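 Membranes from mouse Ba/F3 pro-B cells stably expressing Flag-tagged human CXCR3 (N-delta 4), 2 μg per point, bound to WGA SPA beads. Compound titrations competed with 25 pM [125I] IP-10 for 3 hr at room temperature in HEPES buffer with Ca2+, Mg2+, NaCl, 1.0% BSA; bead-bound radioactivity counted, […] values reported.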
On the technique in general: SPA uses beads or plates that emit light when radiolabelled molecules are held near them.
As to `CCNc1nnc(-c2cnc(N3C[C@H](CC)N(C4CCN(Cc5ccc(O)cc5)CC4)C[C@H]3C)c(C)n2)o1` [Compound 136], the IC50 was under 25 nM.

Take `CC[C@H]1CN(c2ncc(-c3nnc(C)o3)nc2F)CCN1C1CCN(C(=O)c2ccc(Cl)nc2N)CC1` [Compound 137]: the IC50 fell in the range of 25 to 100 nM.

As to `CC[C@H]1CN(c2ncc(-c3nc[nH]n3)nc2C)CCN1C1CCN(C(=O)c2cc(F)c(F)cc2Cl)CC1` [Compound 138], the IC50 was in the range of 25 to 100 nM.

On to `CCNc1nnc(-c2cnc(N3CCN(C4CCN(C(=O)c5ccc(CC)cc5)CC4)[C@@H](CC)C3)c(C)n2)o1` [Compound 139], for which the IC50 lay in the range of 25 to 100 nM.

As to `CC[C@H]1CN(c2ncc(-c3nnc(C4CC4)[nH]3)nc2C)CCN1C1CCN(C(=O)c2ccc(Cl)cc2)CC1` [Compound 140], the IC50 was under 25 nM.

For `CC[C@H]1CN(c2ncc(-c3nnc(C(C)C)[nH]3)nc2C)CCN1C1CCN(C(=O)c2ccc(Cl)cc2)CC1` [Compound 141], the IC50 fell in the range of 25 to 100 nM.

`CCNc1nnc(-c2cnc(N3CCN(C4CCN(C(=O)c5ccc(Cl)cc5)CC4)[C@@H](CC)C3)c(C)n2)o1` [Compound 142]: the IC50 is under 25 nM.

As for `CC[C@H]1CN(c2ncc(-c3nnc(NC)o3)nc2C)[C@H](C)CN1C1CCN(C(=O)c2ccc(Cl)cc2)CC1` [Compound 143], the IC50 was under 25 nM.

On to `CCNc1nnc(-c2cnc(N3CCN(C4CCN(C(=O)c5ccc(F)c(F)c5)CC4)[C@@H](CC)C3)c(C)n2)o1` [Compound 144], for which the IC50 is under 25 nM.

Take `CCNc1nnc(-c2cnc(N3C[C@H](CC)N(C4CCN(C(=O)c5ccc(O)cc5)CC4)C[C@H]3C)c(C)n2)o1` [Compound 145]: the IC50 lay within 25 to 100 nM.

`CC[C@H]1CN(c2ncc(-c3nc4ccccc4[nH]3)nc2C)CCN1C1CCN(C(=O)c2ccc(Cl)cc2)CC1` [Compound 146]: the IC50 is under 25 nM.

As for `CC[C@H]1CN(c2ncc(-c3nc[nH]n3)nc2C)CCN1C1CCN(C(=O)c2ccc(C(F)(F)F)nc2N)CC1` [Compound 147], the IC50 was in the range of 25 to 100 nM.

`CC[C@H]1CN(c2ncc(-c3nc[nH]n3)nc2C)[C@H](C)CN1C1CCN(Cc2ccc(OC(F)(F)F)cc2)CC1` [Compound 148]: the IC50 is under 25 nM.

For `CCNc1nnc(-c2cnc(N3CCN(C4CCN(C(=O)c5ccc(Cl)s5)CC4)[C@@H](CC)C3)c(C)n2)o1` [Compound 149], the IC50 was under 25 nM.

Regarding `CC[C@H]1CN(c2ncc(C3=NCCN3)nc2C)[C@H](C)CN1C1CCN(Cc2ccc(OC(F)(F)F)cc2)CC1` [Compound 150], the IC50 is under 25 nM.

On to `CC[C@H]1CN(c2ncc(-c3nnc(C)o3)nc2Cl)CCN1C1CCN(C(=O)c2ccc(Cl)nc2N)CC1` [Compound 151], for which the IC50 was under 25 nM.

Regarding `CCNc1nnc(-c2cnc(N3C[C@H](CC)N(C4CCN(C(=O)c5ccc(OC)cc5)CC4)C[C@H]3C)c(C)n2)o1` [Compound 152], the half-maximal inhibitory concentration (IC50) was 25 to 100 nM.

Regarding `CCNc1nnc(-c2cnc(N3CCN(C4CCN(C(=O)c5ccc(CC)nc5N)CC4)[C@@H](CC)C3)c(C)n2)o1` [Compound 153], the IC50 was 25 to 100 nM.

With `CC[C@H]1CN(c2ncc(-c3nnc[nH]3)nc2C(F)(F)F)CCN1C1CCN(C(=O)c2ccc(Cl)cc2)CC1` [Compound 154], the IC50 is under 25 nM.

Take `CCNc1nnc(-c2cnc(N3CCN(C4CCN(C(=O)c5ccc(Cl)c(C)c5)CC4)[C@@H](CC)C3)c(C)n2)o1` [Compound 155]: the IC50 is under 25 nM.

As to `CCNc1nnc(-c2cnc(N3CCN(C4CCN(C(=O)c5ccc(Cl)cc5C)CC4)[C@@H](CC)C3)c(C)n2)o1` [Compound 156], the IC50 was under 25 nM.

`CCNc1nnc(-c2nc(C)c(N3CCN(C4CCN(C(=O)c5ccc(Cl)cc5)CC4)[C@@H](CC)C3)nc2C)o1` [Compound 157]: the IC50 was under 25 nM.

`CCNc1nnc(-c2cnc(N3CCN(C4CCN(C(=O)c5ccc(Cl)cc5)CC4)[C@@H](CC)C3)c(CC)n2)o1` [Compound 158]: the IC50 is under 25 nM.

As to `CC[C@H]1CN(c2ncc(-c3nnc(NC(C)C)o3)nc2C)CCN1C1CCN(C(=O)c2ccc(F)c(F)c2)CC1` [Compound 159], the IC50 was under 25 nM.

For `CCNc1nnc(-c2cnc(N3C[C@H](CC)N(C4CCN(C(=O)c5ccc(F)c(F)c5)CC4)C[C@H]3C)c(C)n2)o1` [Compound 160], the IC50 was under 25 nM.

Consider `CC[C@H]1CN(c2ncc(-c3nnc(NC)o3)nc2C)[C@H](C)CN1C1CCN(C(=O)c2ccc(Cl)nc2N)CC1` [Compound 161], for which the IC50 was under 25 nM.

Take `CCNc1nnc(-c2cnc(N3CCN(C4CCN([C@@H](CO)c5ccc(Cl)cc5)CC4)[C@@H](CC)C3)c(C)n2)o1` [Compound 162]: the IC50 was under 25 nM.

As to `CCNc1nnc(-c2cnc(N3CCN(C4CCN([C@H](CO)c5ccc(Cl)cc5)CC4)[C@@H](CC)C3)c(C)n2)o1` [Compound 163], the 50% inhibitory concentration (IC50) was under 25 nM.

On to `CCNc1nnc(-c2cnc(N3CCN(C4CCN(C(=O)c5ccc(Cl)c(F)c5)CC4)[C@@H](CC)C3)c(C)n2)o1` [Compound 164], for which the IC50 is under 25 nM.

As for `CCNc1nnc(-c2cnc(N3CCN(C4CCN(C(=O)c5ccc(Cl)cc5F)CC4)[C@@H](CC)C3)c(C)n2)o1` [Compound 165], the IC50 is under 25 nM.

On to `CCNc1nnc(-c2cnc(N3CCN(C4CCN(Cc5ccc(C(F)(F)F)cc5)CC4)[C@@H](CC)C3)c(C)n2)o1` [Compound 166], for which the IC50 is under 25 nM.

As for `CC[C@H]1CN(c2ncc(-c3nnc(N)o3)nc2C)[C@H](C)CN1C1CCN(Cc2ccc(OC(F)(F)F)cc2)CC1` [Compound 167], the IC50 is under 25 nM.

Turning to `CCNc1nnc(-c2cnc(N3C[C@H](CC)N(C4CCN(Cc5ccc(Cl)cc5O)CC4)C[C@H]3C)c(C)n2)o1` [Compound 168], the IC50 is under 25 nM.

On to `CCNc1nnc(-c2cnc(N3CCN(C4CCN(CCC(=O)c5ccc(Cl)cc5)CC4)[C@@H](CC)C3)c(C)n2)o1` [Compound 169], for which the IC50 was under 25 nM.

For the molecule `CC[C@H]1CN(c2ncc(-c3nnc(N)o3)nc2C)[C@H](C)CN1C1CCN([C@H](C(=O)OC)c2ccc(Cl)cc2)CC1` [Compound 170], the IC50 was in the range of 25 to 100 nM.

With `CC[C@H]1CN(c2ncc(-c3nnc(NC(C)C)o3)nc2C)CCN1C1CCN(C(=O)c2ccc(Cl)nc2N)CC1` [Compound 171], the IC50 was under 25 nM.

As to `CCNc1nnc(-c2cnc(N3CCN(C4CCN(C(=O)c5ccc(Cl)nc5N)CC4)[C@@H](CC)C3)c(CC)n2)o1` [Compound 173], the IC50 is under 25 nM.

Consider `CCNc1nnc(-c2nc(C)c(N3CCN(C4CCN(C(=O)c5ccc(Cl)nc5N)CC4)[C@@H](CC)C3)nc2N)o1` [Compound 174], for which the half-maximal inhibitory concentration (IC50) is under 25 nM.

Take `CCNc1nnc(-c2cnc(N3C[C@H](CC)N(C4CCN(C(CO)c5ccc(F)c(F)c5)CC4)C[C@H]3C)c(C)n2)o1` (stereo partly shown) [Compound 175]: the IC50 is under 25 nM.

On to `CCNc1nnc(-c2cnc(N3CCN(C4CCN(C(=O)c5ccc(C(F)(F)F)cc5)CC4)[C@@H](CC)C3)c(C)n2)o1` [Compound 176], for which the IC50 was under 25 nM.

For the molecule `CC[C@H]1CN(c2ncc(-c3nnc(N)o3)nc2C)[C@H](C)CN1C1CCN([C@@H](C)c2ccc(OC(F)(F)F)cc2)CC1` [Compound 177], the half-maximal inhibitory concentration (IC50) is under 25 nM.

For `CC[C@H]1CN(c2ncc(-c3nnc(N)o3)nc2C)[C@H](C)CN1C1CCN([C@H](C)c2ccc(OC(F)(F)F)cc2)CC1` [Compound 178], the IC50 was under 25 nM.

As for `CCNc1nnc(-c2cnc(N3C[C@H](CC)N(C4CCN(Cc5ccc(F)cc5)CC4)C[C@H]3C)c(C(F)(F)F)n2)o1` [Compound 179], the IC50 was under 25 nM.
